Data on 19 compounds can be found in patent US10618903B2, “Heteroaryl substituted aminopyridine compounds” (BRISTOL-MYERS SQUIBB COMPANY, priority 2015, dated 2020).

Series [1] addresses IRAK4 (Homo sapiens (Human), UniProt Q9NWZ3). As to the kind of experiment: IRAK4 Inhibition Assay. The series is classed as biochemical. The following applies: ATP 500 μM; IRAK4 0.6 nM. An outline of the steps: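 Mobility-shift readout: phosphorylated and unphosphorylated fluorescent peptide (1.5 μM) resolved by electrophoresis after a 60 min room-temperature reaction stopped with EDTA. Reaction holds 0.6 nM IRAK4, 500 μM ATP and 1.6% DMSO in HEPES pH 7.2/MgCl2/Brij 35/DTT buffer; percent inhibition set against vehicle and no-enzyme controls.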

Series [2] can be described thus: Caco Permeability Assay. The series is classed as in vitro ADME. The settings on record: human, Caco-2, Caco-2 cells, 3 μM compound. On the procedure: Thirteen to 27 days prior to assay, Caco-2 cells were seeded onto collagen-coated polycarbonate filter membranes in 24-well transwell plates at a density of 1.45×10^5 cells/cm^2, approximately 4.8×10^4 cells per well. The cells were grown in a culture medium consisting of DMEM supplemented with 10% fetal bovine serum, 10 mM HEPES, 1% nonessential amino acids, 2 mM L-glutamine, 100 U/mL penicillin-G, and 100 μg/mL streptomycin. The culture medium was replaced every 3 days and the cells were maintained at 37° C. in a 95% relative humidity and 5% CO2 atmosphere. The cells were evaluated for tight junction formation just prior to assay. The test compound was solubilized to 10 mM in 100% DMSO and diluted to 3 μM in assay buffer. Permeability studies were initiated by adding 200 μL assay buffer plus/minus compound to the apical transwell compartment and 600 μL assay buffer plus/minus compound to the basolateral compartment of the 24-well transwell low-binding cluster plate. For apical-to-basolateral (A to B) permeability (absorptive direction), buffer containing compound was placed in the apical compartment (donor wells), while buffer alone was placed in the corresponding basolateral compartments (receiver wells). For basolateral-to-apical (B to A) permeability (secretive direction), buffer containing compound was placed in the basolateral compartment (donor wells), while buffer alone was placed in the corresponding apical compartments (receiver wells). Transwells were then incubated for 2 hours at 37° C. in a 95% relative humidity and 5% CO2 atmosphere with gentle agitation. Following incubation, 100 μL was removed from each apical and basolateral compartment and transferred to 96-well low binding plates that had been previously loaded with 100 µL/well of acetonitrile containing 250 nM propranolol, 250 nM diclofenac, and 500 nM tolbutamide as internal standards. The samples were subsequently analyzed by LC-MS/MS to determine concentrations of compound.
On the technique in general: Caco-2 cells form a polarised layer with tight junctions and transporters.

Series [3] has as its system IL-6 levels in human whole blood stimulated with a TLR2 agonist. As to the kind of experiment: IRAK4 Whole Blood Assay (lipoteichoic acid/TLR2-stimulated IL-6). It is filed as cell-based. The following applies: Homo sapiens, lipoteichoic acid 10 μg/mL, IL-6 readout. An outline of the steps:
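ACD-A-anticoagulated human whole blood was preincubated with compounds for 60 min at 37 °C under 5% CO2. It was then stimulated with 10 μg/mL lipoteichoic acid (final) in RPMI for 5 h. IL-6 in plasma supernatants was measured by flow cytometry bead assay.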

Chain of IRAK4 (Q9NWZ3 whole entry): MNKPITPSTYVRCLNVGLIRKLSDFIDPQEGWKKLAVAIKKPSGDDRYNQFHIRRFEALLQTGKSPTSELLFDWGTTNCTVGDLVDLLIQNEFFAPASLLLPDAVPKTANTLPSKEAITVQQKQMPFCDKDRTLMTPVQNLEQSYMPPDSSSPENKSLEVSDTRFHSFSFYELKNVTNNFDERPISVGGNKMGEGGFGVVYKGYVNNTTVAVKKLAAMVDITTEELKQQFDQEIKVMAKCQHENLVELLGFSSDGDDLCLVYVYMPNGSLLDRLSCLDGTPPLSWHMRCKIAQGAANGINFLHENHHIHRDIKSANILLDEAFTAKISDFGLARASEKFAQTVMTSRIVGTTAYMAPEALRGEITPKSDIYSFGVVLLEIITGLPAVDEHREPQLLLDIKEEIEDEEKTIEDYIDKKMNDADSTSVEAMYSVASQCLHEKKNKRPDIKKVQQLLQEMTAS

For orientation: IC50 means the concentration that inhibits the measured activity by half. The term Papp denotes the rate of passage across a membrane or cell layer, normalised by area and donor concentration. A high value points to ready permeation. As usually defined, the EC50 is the concentration needed to bring the measured effect to its halfway point. For `CC(C)(O)[C@H](F)CNC(=O)c1cnc(-c2cnn3cc(Cl)cnc23)cc1NC1CC1` [Example 22, (R)-6-(6-chloropyrazolo[1,5-a]pyrimidin-3-yl)-4-(cyclopropylamino)-N-(2-fluoro-3-hydroxy-3-methylbutyl)nicotinamide], the IC50 in series [1] stood at 2 nM. In series [2], the Papp at 2 h, 3 µM stood at 16.2 ×10⁻⁶ cm/s. The compound further came in with an EC50 in series [3] of 11100 nM.

`CC(=O)N[C@H]1CC[C@H](NC(=O)c2cnc(-c3cnn4cc(Cl)cnc34)cc2NC(C)C)CC1` [Example 23, N-((1r,4r)-4-acetamidocyclohexyl)-6-(6-chloropyrazolo[1,5-a]pyrimidin-3-yl)-4-(isopropylamino) nicotinamide]: the IC50 in series [1] came to 10 nM. This compound gave a Papp at 2 h, 3 µM in series [2] of 1.8 ×10⁻⁶ cm/s. Also, a half-maximal effect in series [3] (EC50) was put at 720 nM.

In the case of `CC(C)(O)[C@H](F)CNC(=O)c1cnc(-c2cnn3cc(Cl)cnc23)cc1NC1CCOCC1` [Example 30, (R)-6-(6-chloropyrazolo[1,5-a]pyrimidin-3-yl)-N-(2-fluoro-3-hydroxy-3-methylbutyl)-4-((tetrahydro-2H-pyran-4-yl)amino)nicotinamide], the IC50 in series [1] worked out at 4 nM. For the same compound, in series [2], the Papp at 2 h, 3 µM is 14.2 ×10⁻⁶ cm/s. Also, the EC50 in series [3] was determined as 380 nM.

Turning to `C[C@@H](CO)Nc1cc(-c2cnn3cc(Cl)cnc23)ncc1C(=O)NC[C@@H](F)C(C)(C)O` [Example 31, 6-(6-chloropyrazolo[1,5-a]pyrimidin-3-yl)-N—((R)-2-fluoro-3-hydroxy-3-methylbutyl)-4-(((S)-1-hydroxypropan-2-yl)amino)nicotinamide], the IC50 in series [1] was determined as 7 nM. Further, the apparent permeability coefficient (Papp) at 2 h, 3 µM in series [2] is less than 1.5 ×10⁻⁶ cm/s. In series [3], this compound yielded an EC50 of 140 nM.

For the compound `C[C@@H](CF)Nc1cc(-c2cnn3cc(Cl)cnc23)ncc1C(=O)NC[C@@H](F)C(C)(C)O` [Example 32, 6-(6-chloropyrazolo[1,5-a]pyrimidin-3-yl)-N—((R)-2-fluoro-3-hydroxy-3-methylbutyl)-4-(((S)-1-fluoropropan-2-yl)amino)nicotinamide], the IC50 in series [1] came out at 4 nM. For the same compound, in series [2], the apparent permeability (Papp) at 2 h, 3 µM stood at 24.1 ×10⁻⁶ cm/s. This compound also returned an EC50 in series [3] of 710 nM.

Consider `CC(C)(O)[C@H](F)CNC(=O)c1cnc(-c2cnn3cc(Cl)cnc23)cc1Nc1ccc(C(N)=O)cc1` [Example 33, (R)-4-((4-carbamoylphenyl)amino)-6-(6-chloropyrazolo[1,5-a]pyrimidin-3-yl)-N-(2-fluoro-3-hydroxy-3-methylbutyl) nicotinamide], for which the IC50 in series [1] came to 2 nM. Also, in series [2], the Papp at 2 h, 3 µM is less than 1.5 ×10⁻⁶ cm/s. This compound yielded an EC50 in series [3] of 350 nM.

As for `CNC(=O)c1ccc(Nc2cc(-c3cnn4cc(Cl)cnc34)ncc2C(=O)NC[C@@H](F)C(C)(C)O)cc1` [Example 34, (R)-6-(6-chloropyrazolo[1,5-a]pyrimidin-3-yl)-N-(2-fluoro-3-hydroxy-3-methylbutyl)-4-((4-(methylcarbamoyl)phenyl)amino)nicotinamide], in series [1], the half-maximal inhibitory concentration (IC50) was 2 nM. This compound showed a Papp at 2 h, 3 µM in series [2] of less than 1.5 ×10⁻⁶ cm/s. The EC50 in series [3] was found to be 360 nM.

For `CC(C)Nc1cc(-c2cnn3cc(Cl)cnc23)ncc1C(=O)NCC(F)C1(O)COC1` (stereo not drawn) [Example 37, 6-(6-chloropyrazolo[1,5-a]pyrimidin-3-yl)-N-(2-fluoro-2-(3-hydroxyoxetan-3-yl)ethyl)-4-(isopropylamino)nicotinamide], the IC50 in series [1] amounted to 6 nM. Further, the apparent permeability (Papp) at 2 h, 3 µM in series [2] amounted to 4.8 ×10⁻⁶ cm/s. The compound further came in with an EC50 in series [3] of 700 nM.

On to `CC(C)(O)[C@H]1CC[C@H](NC(=O)c2cnc(-c3cnn4cc(Cl)cnc34)cc2NC2COC2)CC1` [Example 40, 6-(6-chloropyrazolo[1,5-a]pyrimidin-3-yl)-N-((1r,4r)-4-(2-hydroxypropan-2-yl)cyclohexyl)-4-(oxetan-3-ylamino)nicotinamide], for which, in series [1], the IC50 came out at 4 nM. The Papp at 2 h, 3 µM in series [2] was 22.1 ×10⁻⁶ cm/s. This compound also came in with an EC50 in series [3] of 1720 nM.

For the compound `CC(C)(O)[C@H](F)CNC(=O)c1cnc(-c2cnn3cc(Cl)cnc23)cc1N[C@@H]1COC[C@H]1F` [Example 44, 6-(6-chloropyrazolo[1,5-a]pyrimidin-3-yl)-N—((R)-2-fluoro-3-hydroxy-3-methylbutyl)-4-(((3R,4S)-4-fluorotetrahydrofuran-3-yl)amino)nicotinamide], in series [1], the IC50 came out at 7 nM. Besides, in series [2], the Papp at 2 h, 3 µM stood at 5.3 ×10⁻⁶ cm/s. The compound also had an EC50 in series [3] of 2730 nM.

For the compound `CC(C)(O)CCNC(=O)c1cnc(-c2cnn3cc(Cl)cnc23)cc1NC1COC1` [Example 47, 6-(6-chloropyrazolo[1,5-a]pyrimidin-3-yl)-N-(3-hydroxy-3-methylbutyl)-4-(oxetan-3-ylamino)nicotinamide], in series [1], the IC50 is 8 nM. This compound also yielded a Papp at 2 h, 3 µM in series [2] of 17.3 ×10⁻⁶ cm/s. Besides, the EC50 in series [3] came out at 350 nM.

For the compound `CC(C)(O)[C@H](F)CNC(=O)c1cnc(-c2cnn3cc(Cl)cnc23)cc1Nc1cnn(C2COC2)c1` [Example 48, (R)-6-(6-chloropyrazolo[1,5-a]pyrimidin-3-yl)-N-(2-fluoro-3-hydroxy-3-methylbutyl)-4-((1-(oxetan-3-yl)-1H-pyrazol-4-yl)amino)nicotinamide], in series [1], the IC50 is 1 nM. In addition, the Papp at 2 h, 3 µM in series [2] is 2.6 ×10⁻⁶ cm/s. For the same compound, the EC50 in series [3] was 300 nM.

For `CC(C)Nc1cc(-c2cnn3cc(Cl)cnc23)ncc1C(=O)N[C@H]1CC[C@H](NC(=O)[C@H](C)O)CC1` [Example 49, 6-(6-chloropyrazolo[1,5-a]pyrimidin-3-yl)-N-((1S,4r)-4-((S)-2-hydroxypropanamido)cyclohexyl)-4-(isopropylamino)nicotinamide], the IC50 in series [1] was found to be 18 nM. Besides, the Papp at 2 h, 3 µM in series [2] is less than 1.5 ×10⁻⁶ cm/s. Also, a half-maximal response in series [3] (EC50) required 2920 nM.

Regarding `CC(C)(O)[C@H]1CC[C@H](Nc2cc(-c3cnn4cc(Cl)cnc34)ncc2C(=O)NC[C@@H](F)C(C)(C)O)C1` [Example 50, 6-(6-chloropyrazolo[1,5-a]pyrimidin-3-yl)-N—((R)-2-fluoro-3-hydroxy-3-methylbutyl)-4-(((1S,3S)-3-(2-hydroxypropan-2-yl)cyclopentyl)amino)nicotinamide], the IC50 in series [1] is 2 nM. In series [2], the Papp at 2 h, 3 µM came out at 3 ×10⁻⁶ cm/s. Besides, the concentration for a half-maximal effect (EC50) in series [3] was 690 nM.

Consider `CC(C)(O)[C@H](F)CNC(=O)c1cnc(-c2cnn3cc(Cl)cnc23)cc1Nc1cnn(C2CCOCC2)c1` [Example 52, (R)-6-(6-chloropyrazolo[1,5-a]pyrimidin-3-yl)-N-(2-fluoro-3-hydroxy-3-methylbutyl)-4-((1-(tetrahydro-2H-pyran-4-yl)-1H-pyrazol-4-yl)amino)nicotinamide], for which, in series [1], the IC50 is 3 nM. In series [2], this compound showed a Papp at 2 h, 3 µM of less than 1.5 ×10⁻⁶ cm/s. In series [3], this compound registered an EC50 of 280 nM.

Turning to `CCNc1cc(-c2cnn3cc(Cl)cnc23)ncc1C(=O)NC[C@@H](F)C(C)(C)O` [Example 56, (R)-6-(6-chloropyrazolo[1,5-a]pyrimidin-3-yl)-4-(ethylamino)-N-(2-fluoro-3-hydroxy-3-methylbutyl) nicotinamide], the IC50 in series [1] was 5 nM. This compound came in with an apparent permeability (Papp) at 2 h, 3 µM in series [2] of 14.3 ×10⁻⁶ cm/s. The same compound registered an EC50 in series [3] of 360 nM.

Regarding `CC(C)(O)CNc1cc(-c2cnn3cc(Cl)cnc23)ncc1C(=O)NC[C@@H](F)C(C)(C)O` [Example 58, (R)-6-(6-chloropyrazolo[1,5-a]pyrimidin-3-yl)-N-(2-fluoro-3-hydroxy-3-methylbutyl)-4-((2-hydroxy-2-methylpropyl)amino)nicotinamide], the IC50 in series [1] was 14 nM. In addition, the Papp at 2 h, 3 µM in series [2] is less than 1.5 ×10⁻⁶ cm/s. For the same compound, a half-maximal response in series [3] (EC50) required 350 nM.

As to `CC(C)(O)[C@H](F)CNC(=O)c1cnc(-c2cnn3cc(Cl)cnc23)cc1NC1CCC1` [Example 60, (R)-6-(6-chloropyrazolo[1,5-a]pyrimidin-3-yl)-4-(cyclobutylamino)-N-(2-fluoro-3-hydroxy-3-methylbutyl)nicotinamide], in series [1], the IC50 came out at 4 nM. The compound further gave a Papp at 2 h, 3 µM in series [2] of 27 ×10⁻⁶ cm/s. A half-maximal effect in series [3] (EC50) was put at 4930 nM.

On to `C[C@H](F)CNc1cc(-c2cnn3cc(Cl)cnc23)ncc1C(=O)NC[C@@H](F)C(C)(C)O` [Example 61, 6-(6-chloropyrazolo[1,5-a]pyrimidin-3-yl)-N—((R)-2-fluoro-3-hydroxy-3-methylbutyl)-4-(((S)-2-fluoropropyl)amino)nicotinamide], for which the IC50 in series [1] turned out to be 6 nM. Also, in series [2], the Papp at 2 h, 3 µM was 19.7 ×10⁻⁶ cm/s. Moreover, a half-maximal effect in series [3] (EC50) was put at 1820 nM.
